Changes are numbered by the printed parent chain. Active and inactive are the calls of the source. The calls are words filed in the database; no cut-off is given here.
Columns and labels:
[1] = system: T1, General amino-acid permease GAP1 (Saccharomyces cerevisiae), P19145 [V381C]; assay: Induction of yeast Gap1 V381C mutant-mediated trehalose activation at 2 mM in presence of 10 mM MTSEA treated before compound addition
T1 sequence (whole entry): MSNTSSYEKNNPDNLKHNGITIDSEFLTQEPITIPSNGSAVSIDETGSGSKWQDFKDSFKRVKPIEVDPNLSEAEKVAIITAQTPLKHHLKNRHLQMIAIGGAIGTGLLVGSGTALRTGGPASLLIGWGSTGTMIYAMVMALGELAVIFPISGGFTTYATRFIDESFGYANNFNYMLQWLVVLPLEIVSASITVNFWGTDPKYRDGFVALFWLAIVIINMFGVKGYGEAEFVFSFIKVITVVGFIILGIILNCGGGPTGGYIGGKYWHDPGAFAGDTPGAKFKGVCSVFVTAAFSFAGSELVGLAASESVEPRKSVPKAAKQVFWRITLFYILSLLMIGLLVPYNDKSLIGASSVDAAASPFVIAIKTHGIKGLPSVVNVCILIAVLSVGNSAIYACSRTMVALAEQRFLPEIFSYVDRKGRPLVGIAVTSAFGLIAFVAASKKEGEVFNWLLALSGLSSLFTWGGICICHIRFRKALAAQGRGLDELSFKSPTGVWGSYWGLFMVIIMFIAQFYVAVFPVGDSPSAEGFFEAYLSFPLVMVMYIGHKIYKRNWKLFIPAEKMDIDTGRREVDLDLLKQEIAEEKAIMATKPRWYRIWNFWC

[2] = system: T2, General amino-acid permease GAP1 (Saccharomyces cerevisiae), P19145 [A396C]; assay: Induction of yeast Gap1 A396C mutant-mediated amino acid uptake at 2 mM in presence of 10 mM MTSEA treated before compound addition
T2 sequence (whole entry): T1 sequence (whole entry) with C381V, A396C

[3] = system: General amino-acid permease GAP1 (Saccharomyces cerevisiae), P19145 [V402C]; assay: Inhibition of yeast Gap1 V402C mutant-mediated trehalose activation at 10 mM
Chain of General amino-acid permease GAP1 (Saccharomyces cerevisiae), P19145 [V402C] (P19145 whole entry V402C): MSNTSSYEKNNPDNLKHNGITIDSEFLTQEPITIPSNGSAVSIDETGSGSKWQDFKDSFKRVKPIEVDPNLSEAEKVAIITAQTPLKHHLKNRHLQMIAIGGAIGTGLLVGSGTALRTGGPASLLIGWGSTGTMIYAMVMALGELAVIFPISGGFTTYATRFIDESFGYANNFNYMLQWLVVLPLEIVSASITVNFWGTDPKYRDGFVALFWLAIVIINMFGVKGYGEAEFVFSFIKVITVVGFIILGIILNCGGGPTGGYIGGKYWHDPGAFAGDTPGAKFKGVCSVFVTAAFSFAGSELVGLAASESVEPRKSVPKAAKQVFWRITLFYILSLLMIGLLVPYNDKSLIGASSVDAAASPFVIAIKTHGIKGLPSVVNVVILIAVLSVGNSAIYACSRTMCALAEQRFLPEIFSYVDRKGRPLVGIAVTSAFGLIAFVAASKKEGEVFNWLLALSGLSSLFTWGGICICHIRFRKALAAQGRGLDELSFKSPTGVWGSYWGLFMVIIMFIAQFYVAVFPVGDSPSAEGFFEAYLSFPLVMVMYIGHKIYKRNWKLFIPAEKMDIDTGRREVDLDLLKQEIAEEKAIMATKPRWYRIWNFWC

[4] = system: T3, General amino-acid permease GAP1 (Saccharomyces cerevisiae), P19145 [A403C]; assay: Activation of yeast Gap1 A403C mutant-mediated amino acid uptake at 10 mM
T3 sequence (whole entry): T1 sequence (whole entry) with C381V, A403C

[5] = system: T4, General amino-acid permease GAP1 (Saccharomyces cerevisiae), P19145 [S398C]; assay: Activation of yeast Gap1 S398C mutant-mediated amino acid uptake at 10 mM
T4 sequence (whole entry): T1 sequence (whole entry) with C381V, S398C

[6] = system: General amino-acid permease GAP1 (Saccharomyces cerevisiae), P19145 [S392C]; assay: Inhibition of yeast Gap1 S392C mutant-mediated trehalose activation at 10 mM
Chain of General amino-acid permease GAP1 (Saccharomyces cerevisiae), P19145 [S392C] (P19145 whole entry S392C): as the sequence (P19145 whole entry V402C) above, with S392C, C402V counted along it

In the case of `NC(=O)NCCC[C@H](N)C(=O)O`, the inhibition [1] is reported as “Active”, the Activity [2] is reported as “Active” and the inhibition [3] is reported as “Active”. The Activity [4] was “inactive”, the Activity [5] was “inactive” and the inhibition [6] was “Active”.
